Experimental data: publication PMC12693167, “Design, Synthesis and Anticancer Activity of 6-Substituted-1-(3,4,5-trimethoxyphenyl)-1H-indole Against Tubulin Polymerisation” (Molecules, 2025)
Several values for one entry are separate records, joined by “and”; a condition that tells them apart may be missing. Equal values may be shown once.

Experiments:
[1] = system: MCF-7 cells; test: CCK-8 antiproliferative assay, MCF-7; format: cell-based; settings: Homo sapiens, MCF7; cell viability (CCK-8), 48 h
Procedure: (§1) To evaluate the anticancer potential of the synthesized compounds, a panel of six human and murine cancer cell lines representing different tissue origins was selected, including MCF-7 (human breast adenocarcinoma), MDA-MB-231 (human triple-negative breast cancer), A549 (human non-small cell lung cancer), HeLa (human cervical cancer), A375 (human melanoma), and B16-F10 (murine melanoma) (Table 2). […] DMSO was used as the vehicle control, and all experiments were performed in triplicate to ensure reproducibility.
(§2) Human breast cancer cells (MCF-7), human lung cancer cells (A549), human cervical cancer cells (HeLa), human triple-negative breast cancer cells (MDA-MB-231), and human malignant melanoma cells (A375) were cultured in DMEM. Mouse melanoma cells (B16F10) were maintained in RPMI-1640 medium. All media were supplemented with 10% fetal bovine serum and 1% penicillin-streptomycin (Life Technologies, Carlsbad, CA, USA) and maintained at 37 °C in a humidified atmosphere with 5% CO2.
(§3) The cytotoxicity of the test compounds was evaluated against MCF-7, A549, HeLa, MDA-MB-231, A375, and B16F10 using the CCK-8 assay. Cells were seeded into 96-well plates at a density of 5000 cells/well. After removing the medium, 100 μL of medium with 0.1% DMSO containing test compounds at different concentrations was added to each well and incubated at 37 °C for another 48 h. The CCK-8 solution was added and incubated for another 1 h, and then, the absorbance was detected with a microplate reader at a wavelength of 450 nm. The IC50 values were calculated by nonlinear regression analysis using GraphPad Prism 8.0.2. All the experiments were repeated at least three times.

[2] = system: A375 cells; test: CCK-8 antiproliferative assay, A375; format: cell-based; settings: Homo sapiens, A-375; cell viability (CCK-8), 48 h
Procedure: as §1, §2, §3

[3] = system: MCF-7 cells; test: Transwell migration assay; format: cell-based, human; settings: 24 h exposure, dose-dependent
Procedure: The impact of compound 3g on MCF-7 cell migration was assessed using wound healing and transwell migration assays.
MCF-7 cells were seeded into six-well culture plates at a density of 5 × 10^5 cells per well for 24 h. After treatment with compounds 3g at different concentrations for 24 h, cells were harvested and inoculated on transwell filters ([…] pore size, Millipore, Billerica, MA, USA) in 24-well culture plates. The cells in the top chamber were cultured in the FBS-free medium, and those in the bottom chamber were cultured in the medium containing 10% FBS. The plates were cultivated for an additional 48 h, and the cells that had migrated to the bottom of the top chambers were fixed with 4% paraformaldehyde and then stained with 0.1% crystal violet. Images of migrated cells were obtained using an inverted microscope (Olympus IX73, Olympus Corporation, Tokyo, Japan).
Figure 4 Effect of compound 3g on the migration of MCF-7 breast cancer cells. (A) 3g inhibited the migration of MCF-7 cells at different concentrations in a dose-dependent manner. Representative images of wound healing were captured by an inverted microscope at 0 h and 24 h treatment. Scale bar = 200 μm. (B) Wound closure percentages in the different groups after treatment with 3g for 24 h. (C) Results of the transwell migration assay. […]

[4] = system: MCF-7 cells; test: Cell cycle analysis by flow cytometry; format: cell-based, human; settings: 10 μM, 48 h
Procedure: Given that microtubule polymerization inhibitors are known to disrupt mitosis and induce cell cycle arrest, we evaluated the effect of compound 3g on cell cycle progression in MCF-7 cells by flow cytometry.
MCF-7 cells were seeded in 6-well plates and cultured overnight. Cells were then treated with compound 3g at concentrations of 0.1, 1, and 10 μM for 48 h. After treatment, cells were collected and fixed in 70% ethanol at 4 °C overnight. The fixed cells were washed and resuspended in staining buffer containing RNase A and propidium iodide (PI), followed by incubation in the dark at 37 °C for 30 min. DNA content was subsequently analyzed by flow cytometry.
Figure 6 Cell cycle arrest induced by compound 3g. (A) Compound 3g induced G2/M arrest in MCF-7 cells. MCF-7 cells were incubated with varying concentrations of compound 3g (0.1, 1, and 10 μM) for 48 h. The percentages of cells in different phases of the cell cycle were analyzed by FlowJo 10.8.1. (B) Histograms display the percentage of cell cycle distribution after treatment with compound 3g. Data are expressed as mean ± standard deviation from three independent experiments. Statistical significance was determined by one-way ANOVA followed by Tukey’s post hoc test.

[5] = system: B16F10 melanoma tumors in BALB/c mice; test: In vivo antitumor efficacy, subcutaneous B16-F10 melanoma model; set-up: species or system mouse; settings: 14 days, from tumor weight
Procedure: The in vivo antitumor activity of compound 3g was evaluated using a mouse melanoma tumor model in BALB/c mice. Tumors were established by subcutaneous inoculation of B16F10 cells, and treatment was initiated when tumors reached a measurable size. Mice were administered vehicle control, paclitaxel (PTX, 10 mg/kg), or compound 3g (20 and 50 mg/kg) via intraperitoneal injection once daily for 14 consecutive days.
All animal procedures were approved by the Animal Ethics Committee of the Naval Medical University (permit number: EC11-055). Male BALB/c mice (6–8 weeks old, average initial body weight approximately 18–20 g) were purchased from Shanghai SLAC Laboratory Animal Co., Ltd. The inhibitory effect of compound 3g was evaluated using a subcutaneous B16-F10 melanoma xenograft model. Log-phase B16F10 cells were suspended in PBS and subcutaneously injected into mice (200 μL containing 8 × 10^5 cells per mouse) to establish tumors. Mice were randomly divided into control and treatment groups (n = 8). Compound 3g and paclitaxel were dissolved in a vehicle consisting of DMSO:PEG:Tween-80:saline (v/v/v/v, 5:35:10:50) to the desired concentrations. Treatments (paclitaxel, 10 mg/kg; compound 3g, 20 and 50 mg/kg, doses calculated on a body-weight basis) and vehicle were administered once daily via intraperitoneal injection for 14 consecutive days. Body weights were monitored throughout the study to assess acute toxicity. Tumor volumes were measured using calipers and calculated with the formula: a × b^2 × 0.5, where a and b represent the larger and smaller tumor diameters, respectively. On day 14, mice were sacrificed and tumors were excised and weighed. […] Major organs (liver and kidneys) were collected, fixed in 4% paraformaldehyde, processed into paraffin sections, stained with hematoxylin and eosin (H&E), and examined microscopically.
Murine melanoma B16-F10 xenograft tumors were established in mice, which were then administered vehicle, PTX (10 mg/kg per day), compound 3g (20 mg/kg per day), and compound 3g (50 mg/kg per day) for 14 days. […]

## COc1cc(-n2ccc3ccc(-c4ccc(C)c(C#N)c4)cc32)cc(OC)c1OC [3g, 2-methyl-5-(1-(3,4,5-trimethoxyphenyl)-1H-indol-6-yl)benzonitrile]
[1]
  IC50: 2940 ± 560 nM
[2]
  IC50: 570 ± 10 nM
[3]
  number of cells traversing the membrane: significant reduction
[4]
  cells in the G2/M phase: marked accumulation
[5]; 20 mg/kg i.p. once daily
  tumor growth inhibition (TGI): 23.3% and 23.34%
[5]; 50 mg/kg i.p. once daily
  tumor growth inhibition (TGI): 44.2% and 44.18%
